Values quoted from earlier work in US6756057B2, “Amoxicillin and potassium clavulanate dosage form” (Beecham Pharmaceuticals (pte) Limited, priority 2000, dated 2004).

Conditions: in vivo

For `CC1(C)S[C@@H]2[C@H](NC(=O)[C@H](N)c3ccc(O)cc3)C(=O)N2[C@H]1C(=O)O` [amoxicillin], the elimination half-life is listed as “about 1.3 hours”.
